Molecular target: Kv1.3 (Homo sapiens, UniProt P22001)
Experiment: not given
Conditions: cited from earlier work

Sequence of Kv1.3 (P22001 whole entry): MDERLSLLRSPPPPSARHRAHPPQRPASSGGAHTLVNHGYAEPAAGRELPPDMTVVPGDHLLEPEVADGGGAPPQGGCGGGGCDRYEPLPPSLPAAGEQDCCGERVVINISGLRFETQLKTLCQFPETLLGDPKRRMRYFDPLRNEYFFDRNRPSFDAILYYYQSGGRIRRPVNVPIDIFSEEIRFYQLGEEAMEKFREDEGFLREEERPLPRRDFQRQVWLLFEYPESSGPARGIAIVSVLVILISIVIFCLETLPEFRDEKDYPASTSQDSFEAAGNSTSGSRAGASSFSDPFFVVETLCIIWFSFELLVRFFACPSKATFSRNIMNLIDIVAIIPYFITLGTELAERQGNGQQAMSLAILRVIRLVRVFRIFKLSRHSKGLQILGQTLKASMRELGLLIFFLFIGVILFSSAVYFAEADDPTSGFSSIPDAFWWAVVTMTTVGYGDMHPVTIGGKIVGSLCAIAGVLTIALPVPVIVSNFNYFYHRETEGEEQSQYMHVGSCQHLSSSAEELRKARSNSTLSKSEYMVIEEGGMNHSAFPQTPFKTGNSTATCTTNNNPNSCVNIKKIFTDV

Row | SMILES | blocking activity on the Kv1.3 channel
1 | COc1c(C(C)=O)c(O)c(OC)c2occc12 [Khellinone] | exhibit blocking activity

Same assay, conditions: result in words; cited from earlier work

Row | SMILES | blocking activity on the Kv1.3 channel
2 | COc1c2occc2cc2ccc(=O)oc12 [Compound 8-MOP, 8-Methoxypsoralen] | exhibit blocking activity

Test system: peripheral blood mononuclear cells
Experiment: [3H]-thymidine incorporation (proliferation), anti-CD3 stimulated
Assay type: cell-based
Conditions: Homo sapiens, PBMC; Table 9; 5 ng/ml anti-CD3 Ab for 48 h
Description: [^3H]-thymidine incorporation is a widely used test to assay the proliferative activity of human and rodent lymphocytes. As cells divide [^3H]-thymidine will be incorporated into the newly synthesised DNA of the resulting daughter cells. The faster cells grow the more radioactive [^3H]-thymidine will be incorporated. Any compound that inhibits lymphocytes proliferation will reduce the uptake of radioactivity by the cells treated with it compared to the untreated controls.
The selected compounds were tested to determine its ability to inhibit [^3H]-thymidine incorporation and the results are set out in table 6 below. Resting peripheral blood mononuclear cells from healthy volunteers were seeded at 2×10^5 cells per well in medium (RPMI 1640 supplemented 10% fetal calf serum, 2 mM glutamine, 1 mM sodium pyruvate, 1% nonessential amino acids, 100 units/ml penicillin, 100 μg/ml streptomycin and 50 μM β-mercaptoethanol) in flat-bottom 96 well plates (final volume 200 μl). Cells were pre-incubated with the compound of example 2 for 60 min, and were stimulated with 5 ng/ml anti-CD3 Ab for 48 h. [^3H]-Thymidine (1 μCi per well) was added for the last 6 h. Cells were harvested onto glass fibre filters and radioactivity measured in a scintillation counter. All experiments were done in triplicate. Results are normalised for maximum [^3H]-thymidine incorporation by control.

Row | SMILES | EC50
3 | COc1c(O)c(C(C)=O)c(OCc2ccc(Cl)cc2)c2ccoc12 [Compound 22] | 2500 nM
4 | COc1c(C(C)=O)c(O)c(OCCCc2ccccc2)c2occc12 [Compound 41] | 1000 nM
5 | COc1c(C(C)=O)c(O)c(OCc2ccc(Br)cc2)c2occc12 [Compound 55] | 2500 nM

Test system: not given
Experiment: not given
Conditions: not given

Row | SMILES | melting point
6 | COc1c(O)c(C(C)=O)c(OCc2ccccc2)c2ccoc12 [Compound 6] | 93 to 94 °C
7 | COc1c(O)c(C(C)=O)c(OCc2ccc(C(F)(F)F)cc2)c2ccoc12 [Compound 24] | 104 to 106 °C
8 | COc1c(O)c(C(C)=O)c(OCc2cccc(F)c2)c2ccoc12 [Compound 15] | 118 to 121 °C
9 | COc1c(O)c(C(C)=O)c(OCc2ccccc2F)c2ccoc12 [Compound 11] | 105 to 108 °C
10 | COc1c(O)c(C(C)=O)c(OCc2ccc(C(=O)c3ccccc3)cc2)c2ccoc12 [Compound 31] | 132 to 134 °C
11 | COc1c(O)c(C(C)=O)c(OCc2ccc(C(C)(C)C)cc2)c2ccoc12 [Compound 26] | 82 to 87 °C
12 | COc1c(C(C)=O)c(O)c(OCc2ccc(-c3ccccc3)cc2)c2occc12 [Compound 59] | 126 to 127 °C
13 | COc1c(O)c(C(C)=O)c(OCc2ccccc2-c2ccccc2)c2ccoc12 [Compound 14] | 126 to 127 °C
14 | CC(=O)c1c(O)c(OCc2ccccc2)c2occc2c1OCc1ccccc1 [Compound 82] | 74 to 76 °C
15 | COc1c(O)c(C(C)=O)c(OCc2ccc(Cl)cc2)c2ccoc12 [Compound 22] | 106 to 108 °C
16 | COc1c(C(C)=O)c(O)c(OCc2ccc(Cl)cc2)c2occc12 [Compound 54] | 110 °C
17 | COc1c(O)c(C(C)=O)c(OCc2cccc(Cl)c2)c2ccoc12 [Compound 16] | 108 to 111 °C
18 | COc1c(C(C)=O)c(O)c(OCc2cccc(Cl)c2)c2occc12 [Compound 49] | 105 to 108 °C
19 | COc1c(O)c(C(C)=O)c(OCc2ccc(F)cc2)c2ccoc12 [Compound 21] | 100 to 102 °C
20 | COc1c(C(C)=O)c(O)c(OCc2ccc(C(C)(C)C)cc2)c2occc12 [Compound 58] | 117 to 118 °C
21 | COc1c(C(C)=O)c(O)c(OCc2ccc(C(F)(F)F)cc2)c2occc12 [Compound 56] | 90 to 91 °C

Row | SMILES | melting point
22 | COc1c(C(C)=O)c(O)c(OCc2ccccc2Cl)c2occc12 [Compound 45] | 104 to 107 °C
23 | COc1c(C(C)=O)c(O)c(OCc2ccccc2-c2ccccc2)c2occc12 [Compound 47] | 115 to 117 °C
24 | COc1c(O)c(C(C)=O)c(OCc2ccc(C(C)C)cc2)c2ccoc12 [Compound 25] | 73 to 75 °C
25 | COc1c(O)c(C(C)=O)c(OCc2ccc(-c3ccccc3)cc2)c2ccoc12 [Compound 27] | 163 to 167 °C
26 | COc1c(O)c(C(C)=O)c(OCc2cccc3ccccc23)c2ccoc12 [Compound 4] | 96 to 98 °C
27 | COc1c(O)c(C(C)=O)c(OCc2cccc(OC(F)(F)F)c2)c2ccoc12 [Compound 19] | 86 to 88 °C
28 | COc1c(C(C)=O)c(O)c(OCc2ccc3ccccc3c2)c2occc12 [Compound 38] | 114 to 115 °C
29 | COc1c(O)c(C(C)=O)c(OCc2ccc(OCc3ccccc3)cc2)c2ccoc12 [Compound 30] | 155 to 157 °C
30 | COc1c(O)c(C(C)=O)c(OCc2ccc(OC(F)(F)F)cc2)c2ccoc12 [Compound 29] | 130 to 131 °C
31 | COc1c2occc2c(OCCCCc2ccccc2)c2c(=O)cc(C)oc12 [Compound 99] | 121 to 122 °C
32 | COc1c(C(C)=O)c(O)c(OCc2cccc(F)c2)c2occc12 [Compound 48] | 89 to 91 °C
33 | COc1c(O)c(C(C)=O)c(OCc2ccccc2Cl)c2ccoc12 [Compound 12] | 84 to 86 °C
34 | COc1c(C(C)=O)c(O)c(OCc2ccccc2)c2occc12 [Compound 39] | 79 to 80 °C
35 | COc1c(C(C)=O)c(O)c(OCc2ccc(OCc3ccccc3)cc2)c2occc12 [Compound 61] | 118 to 120 °C
36 | COc1c(O)c(C(C)=O)c(OCc2cccc(C)c2)c2ccoc12 [Compound 17] | 99 to 101 °C

Second part, the compound after the results:

Row | melting point | SMILES
37 | 81 to 82 °C | COc1c(C(C)=O)c(O)c(OCc2cccc(C)c2)c2occc12 [Compound 50]
38 | 209 to 211 °C | COc1c(O)c(C(C)=O)c(OCCCCOc2c(C(C)=O)c(O)c(OC)c3occc23)c2ccoc12 [Compound 84]
39 | 125 to 128 °C | COc1c(C(C)=O)c(O)c(OCc2cccc(COc3c(O)c(C(C)=O)c(OC)c4ccoc34)c2)c2occc12 [Compound 94]
40 | 101 to 103 °C | COc1c(O)c(C(C)=O)c(OCc2ccccc2C)c2ccoc12 [Compound 13]
41 | 147 to 151 °C | COc1c(O)c(C(C)=O)c(OCCCCCCOc2c(C(C)=O)c(O)c(OC)c3occc23)c2ccoc12 [Compound 86]
42 | 36 °C | COc1c(C(C)=O)c(O)c(OCCCc2ccccc2)c2occc12 [Compound 41]
43 | 201 to 203 °C | COc1c(O)c(C(C)=O)c(OCc2ccc(COc3c(C(C)=O)c(O)c(OC)c4occc34)cc2)c2ccoc12 [Compound 89]
44 | 121 to 122 °C | COc1c(O)c(C(C)=O)c(OCCCCc2ccccc2)c2ccoc12 [Compound 9]
45 | 94 to 95 °C | COc1c(O)c(C(C)=O)c(OCCCc2ccccc2)c2ccoc12 [Compound 8]
46 | 102 to 104 °C | COc1c(C(C)=O)c(O)c(OCCc2ccccc2)c2occc12 [Compound 40]
47 | 28 °C | COc1c(C(C)=O)c(O)c(OCCCCc2ccccc2)c2occc12 [Compound 42]
48 | 184 to 186 °C | COc1c(C(C)=O)c(O)c(OCc2ccc(COc3c(O)c(C(C)=O)c(OC)c4ccoc34)cc2)c2occc12 [Compound 95]
49 | 139 to 141 °C | COc1c(O)c(C(C)=O)c(OCCCCCOc2c(C(C)=O)c(O)c(OC)c3occc23)c2ccoc12 [Compound 85]
50 | 80 to 83 °C | COc1c(C(C)=O)c(O)c(OCc2ccc(C(C)C)cc2)c2occc12 [Compound 57]
51 | 208 to 209 °C | COc1c(C(C)=O)c(O)c(OCc2ccc(C(=O)O)cc2)c2occc12 [Compound 63]
52 | 31 to 32 °C | COc1c(C(C)=O)c(O)c(OCCCCCc2ccccc2)c2occc12 [Compound 43]
53 | 122 to 125 °C | COc1c(O)c(C(C)=O)c(OCCCCCCCOc2c(C(C)=O)c(O)c(OC)c3occc23)c2ccoc12 [Compound 87]
54 | 106 to 107 °C | COc1c(C(C)=O)c(O)c(OCc2ccc(Br)cc2)c2occc12 [Compound 55]
55 | 132 to 134 °C | COc1c(C(C)=O)c(O)c(OCCCCCOc2c(O)c(C(C)=O)c(OC)c3ccoc23)c2occc12 [Compound 91]
56 | 86 to 88 °C | COc1c(C(C)=O)c(O)c(OCc2ccccc2C)c2occc12 [Compound 46]
57 | 160 to 162 °C | COc1c(O)c(C(C)=O)c(OCc2cccc([N+](=O)[O-])c2)c2ccoc12 [Compound 20]
58 | 183 to 186 °C | COc1c(O)c(C(C)=O)c(OCc2ccc(C(=O)O)cc2)c2ccoc12 [Compound 32]
59 | 99 to 100 °C | COc1c(C(C)=O)c(O)c(OCc2ccc(F)cc2)c2occc12 [Compound 53]
60 | 184 to 186 °C | COc1c(O)c(C(C)=O)c(OCc2cccc(COc3c(C(C)=O)c(O)c(OC)c4occc34)c2)c2ccoc12 [Compound 88]
61 | 109 to 111 °C | COc1c(C(C)=O)c(O)c(OCCCCCCOc2c(O)c(C(C)=O)c(OC)c3ccoc23)c2occc12 [Compound 92]
62 | 89 to 92 °C | COc1c(C(C)=O)c(O)c(OCc2ccccc2F)c2occc12 [Compound 44]
63 | 157 to 159 °C | COc1c(C(C)=O)c(O)c(OCc2cccc([N+](=O)[O-])c2)c2occc12 [Compound 52]
